In patent publication US20200087248A1, “Fluoroallylamine Derivative And Use Thereof” (SICHUAN KELUN-BIOTECH BIOPHARMACEUTICAL CO., LTD., priority 2017, published 2020):
Structures can show the parent of a compound that is named as a salt.

Legend:
VAP-1 = target: T1, VAP-1 (Homo sapiens, UniProt Q16853); experiment: Inhibition of the enzymatic activity of VAP-1 in vitro (Amplex Red); type: biochemical; conditions: VAP-1 protein about 20 nM, 10 min pre-incubation, benzylamine substrate; read-out: IC50, inhibition against the enzymatic activity of VAP-1
T1 construct: purchased R&D Systems
T1 sequence (Q16853 1-763): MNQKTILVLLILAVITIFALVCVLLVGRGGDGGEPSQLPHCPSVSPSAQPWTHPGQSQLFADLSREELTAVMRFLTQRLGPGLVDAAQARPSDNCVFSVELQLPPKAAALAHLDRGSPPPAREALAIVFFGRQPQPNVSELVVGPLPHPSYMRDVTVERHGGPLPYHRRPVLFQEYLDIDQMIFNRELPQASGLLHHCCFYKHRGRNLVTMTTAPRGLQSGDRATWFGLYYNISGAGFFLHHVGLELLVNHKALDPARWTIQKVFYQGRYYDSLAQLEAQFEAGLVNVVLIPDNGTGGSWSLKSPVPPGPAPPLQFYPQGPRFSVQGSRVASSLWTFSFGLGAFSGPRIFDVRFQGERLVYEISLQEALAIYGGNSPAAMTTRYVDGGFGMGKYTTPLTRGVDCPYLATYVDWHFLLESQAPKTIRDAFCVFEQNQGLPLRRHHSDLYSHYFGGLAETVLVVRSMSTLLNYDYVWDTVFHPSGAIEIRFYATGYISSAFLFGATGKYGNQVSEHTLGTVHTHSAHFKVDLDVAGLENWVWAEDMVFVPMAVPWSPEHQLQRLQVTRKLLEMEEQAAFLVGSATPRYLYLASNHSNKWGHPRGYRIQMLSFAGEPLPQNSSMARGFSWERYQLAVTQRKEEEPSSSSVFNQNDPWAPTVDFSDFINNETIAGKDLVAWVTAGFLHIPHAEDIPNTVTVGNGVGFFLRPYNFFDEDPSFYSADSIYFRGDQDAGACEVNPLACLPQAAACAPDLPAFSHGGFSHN
Protocol: Inhibition Experiment Against the Enzymatic Activity of VAP-1(Vascular Adhesion Protein 1) in vitro
Test kit: Amplex® Red Monoamine Oxidase Assay, Manufacturer: ThermoFisher
Reaction buffer solution: 50 mM PBS, pH 7.4
Enzyme: VAP-1, Manufacturer: R&D Systems
VAP-1 protein (about 20 nM) and different concentrations of the test compound were pre-incubated at room temperature for 10 minutes, followed by an addition of […] benzylamine hydrochloride, 1 U/mL HRP and 200 μM Amplex Red reagent according to the specification of the test kit to start the reaction. The reaction plate was placed in the enzyme marker, and in kinetic mode, fluorescence signals were measured at Ex/Em=540/590 nm. The relative inhibition activity of each concentration group was calculated, wherein the ratio (slope) of fluorescence signal to reaction time in the linear range is the reaction rate, the vehicle group (DMSO) is the negative control, and the reaction buffer solution group (without enzymes and the compounds) is the blank control. The half inhibition concentration (IC50) of the compound was calculated according to four-parameter model fitting curve.

MAO-B = target: T2, MAO-B (Homo sapiens, UniProt P27338); experiment: Inhibition of the enzymatic activity of MAO-B; type: biochemical; conditions: range of IC50 from inhibition rates at 10 μM, 1 μM and 0.1 μM; read-out: IC50, inhibition against the enzymatic activity of MAO-B
T2 construct: purchased Sigma Aldrich
T2 sequence (P27338 1-520): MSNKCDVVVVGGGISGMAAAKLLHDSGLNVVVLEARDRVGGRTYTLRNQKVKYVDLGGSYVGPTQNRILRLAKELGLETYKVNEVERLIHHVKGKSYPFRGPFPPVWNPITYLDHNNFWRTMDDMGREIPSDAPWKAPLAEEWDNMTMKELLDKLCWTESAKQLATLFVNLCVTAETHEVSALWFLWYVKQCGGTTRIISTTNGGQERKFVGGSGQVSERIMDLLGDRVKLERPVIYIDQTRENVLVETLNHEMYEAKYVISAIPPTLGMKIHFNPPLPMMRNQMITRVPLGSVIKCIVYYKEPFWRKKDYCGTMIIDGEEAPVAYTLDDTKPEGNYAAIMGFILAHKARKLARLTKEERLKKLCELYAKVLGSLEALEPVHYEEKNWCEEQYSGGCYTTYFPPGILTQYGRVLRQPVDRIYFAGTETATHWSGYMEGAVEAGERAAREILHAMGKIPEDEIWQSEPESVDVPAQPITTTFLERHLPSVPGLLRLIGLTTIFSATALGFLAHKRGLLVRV
Protocol: Inhibition Experiment Against the Enzymatic Activity of MAO-B (Monoamine Oxidase Type B)
(§1) 1. Test kit: Amplex® Red Monoamine Oxidase Assay, Manufacturer: ThermoFisher
Protein: MAO-B, manufacturer: Sigma Aldrich
According to the method as described in the specification of the test kit, MAO-B protein (5 μg/ml) and different concentrations of the test compound were pre-incubated at room temperature for 10 minutes, and then 150 μM benzylamine hydrochloride, 1 U/mL HRP and 200 μM Amplex Red reagent were added to start the reaction. The relative inhibition rate of each concentration group were calculated according to the experimental method of MAO-A.
According to the above method, the inhibition of the compound against the activity of the MAO-B was measured, and the range of IC50 was obtained according to the inhibition rates at 10 μM, 1 μM and 0.1 μM.

DAO = target: T3, DAO (Homo sapiens, UniProt P19801); experiment: Inhibition of the enzymatic activity of DAO; type: biochemical; conditions: DAO 15 μg/ml, histamine substrate; read-out: IC50, inhibition against the enzymatic activity of DAO
T3 construct: purchased R&D Systems
T3 sequence (P19801 20-751): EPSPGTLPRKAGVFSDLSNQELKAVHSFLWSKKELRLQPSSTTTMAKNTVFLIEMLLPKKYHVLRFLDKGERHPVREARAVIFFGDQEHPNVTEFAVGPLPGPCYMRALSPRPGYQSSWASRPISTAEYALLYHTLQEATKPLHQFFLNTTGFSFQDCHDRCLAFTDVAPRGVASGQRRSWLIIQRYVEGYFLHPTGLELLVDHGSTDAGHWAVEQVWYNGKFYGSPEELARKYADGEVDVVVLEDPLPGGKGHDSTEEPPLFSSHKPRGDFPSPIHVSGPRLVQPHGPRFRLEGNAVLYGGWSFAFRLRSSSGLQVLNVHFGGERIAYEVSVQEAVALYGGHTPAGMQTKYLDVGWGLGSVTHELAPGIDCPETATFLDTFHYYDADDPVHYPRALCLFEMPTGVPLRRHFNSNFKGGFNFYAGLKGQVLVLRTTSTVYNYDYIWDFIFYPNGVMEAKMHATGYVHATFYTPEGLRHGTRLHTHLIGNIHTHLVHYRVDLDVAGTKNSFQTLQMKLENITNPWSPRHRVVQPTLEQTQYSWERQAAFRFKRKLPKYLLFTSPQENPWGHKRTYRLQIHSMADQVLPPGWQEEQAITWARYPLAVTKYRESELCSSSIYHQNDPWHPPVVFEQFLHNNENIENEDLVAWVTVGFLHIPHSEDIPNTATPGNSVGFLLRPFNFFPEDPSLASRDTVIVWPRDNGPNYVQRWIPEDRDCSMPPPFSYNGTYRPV
Protocol: Inhibition Experiment Against the Enzymatic Activity of DAO (Diamine Oxidase)
as §1
Protein: DAO, manufacturer: R&D Systems
DAO protein (15 μg/ml) and different concentrations of the test compound were pre-incubated at room temperature for 20 minutes, and then 100 μM Histamine-dihydrochloride, 1 U/mL HRP and 200 μM Amplex Red reagent were added to start the reaction. The inhibition rate of each concentration groups were calculated according to the experimental method of MAO-A.

MAO-A = target: T4, MAO-A (Homo sapiens, UniProt P21397); experiment: Inhibition of the enzymatic activity of MAO-A; type: biochemical; conditions: range of IC50 from inhibition rates at 100 μM and 10 μM; read-out: IC50, inhibition against the enzymatic activity of MAO-A
T4 construct: purchased Sigma Aldrich
T4 sequence (P21397 1-527): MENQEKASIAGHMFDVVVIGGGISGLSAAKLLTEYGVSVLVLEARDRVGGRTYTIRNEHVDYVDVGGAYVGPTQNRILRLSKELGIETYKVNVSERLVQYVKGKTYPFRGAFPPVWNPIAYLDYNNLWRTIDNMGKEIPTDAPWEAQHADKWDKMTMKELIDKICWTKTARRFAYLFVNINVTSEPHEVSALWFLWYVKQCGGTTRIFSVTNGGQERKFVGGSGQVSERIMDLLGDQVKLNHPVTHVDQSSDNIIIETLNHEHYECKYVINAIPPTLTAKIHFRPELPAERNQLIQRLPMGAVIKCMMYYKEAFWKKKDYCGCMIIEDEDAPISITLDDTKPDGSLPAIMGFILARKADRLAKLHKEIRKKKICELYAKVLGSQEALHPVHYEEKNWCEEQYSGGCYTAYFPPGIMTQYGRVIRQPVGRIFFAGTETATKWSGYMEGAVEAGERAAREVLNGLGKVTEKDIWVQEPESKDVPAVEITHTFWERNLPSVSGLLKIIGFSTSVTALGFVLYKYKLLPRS
Protocol: Inhibition Experiment Against the Enzymatic Activity of MAO-A (Monoamine Oxidase Type A)
as §1
2. Reaction Buffer Solution: 50 mM PBS, pH 7.4
Protein: MAO-A, manufacturer: Sigma Aldrich
According to the method as described in the specification of the kit, MAO-A protein (15 μg/ml) and different concentrations of the test compound were pre-incubated at room temperature for 30 minutes, and then 200 μM p-tyramine hydrochloride, 1 U/mL HRP and 200 µM Amplex Red reagent were added to start the reaction. In kinetic mode, fluorescence signals were measured at Ex/Em=540/590 nm. The inhibition rate of each concentration group was calculated, wherein the ratio of fluorescence signal to reaction time ratio is the reaction rate, the vehicle group (DMSO) is the negative control, and the reaction buffer solution group (without enzymes and the compounds) is the blank control.
Percent inhibition rate (%)=(1-(reaction rate of each compound concentration group−reaction rate of the blank group)/(reaction rate of vehicle group−reaction rate of the blank group))*100.
According to the above method, the inhibition of the compound against the enzymatic activity of MAO-A was measured, and the range of IC50 was obtained according to the inhibition rates at 100 μM and 10 μM.

hERG = target: T5, hERG (Homo sapiens, UniProt Q12809); experiment: hERG fluorescence polarization inhibition experiment; conditions: human, probe tracer having high affinity to hERG (kit tracer), hERG cell membrane, 25° C. 2 hours, read-out: hERG (IC50 range, competitive binding vs tracer)
T5 construct: purchased ThermoFisher; host or cells: hERG cell membrane supplied with the kit
Protocol: hERG (Ether-a-go-go-related Gene Potassium Channel) Inhibition Experiment
Reagent: Predictor™ hERG Fluorescence Polarization Assay Kit, Manufacturer: ThermoFisher
The above test kit was used to evaluate the potential of the compound for inducing heart QT prolongation. According to the method as indicated in the specification of the test kit, the test compound, the positive control (E4031) and negative control (Experimental buffer solution) in the kit were added to a microwell plate containing hERG cell membrane, and then a tracer having high affinity to hERG was added. The microwell plate was then incubated at 25° C. for 2 hours, a BMG PHAREStar polyfunctional enzyme marker was used to test the variations in the fluorescent polarization value. By calculating the percent inhibition rates (%) at different concentrations, the range of the half inhibition concentration (IC50) was determined:
Percent inhibition rate (%)=(1-(mP of the test compound-mP of 30 μM E4031)/(mP of experimental buffer solution-mP of 30 μM E4031))*100.

T5 sequence (Q12809 whole entry): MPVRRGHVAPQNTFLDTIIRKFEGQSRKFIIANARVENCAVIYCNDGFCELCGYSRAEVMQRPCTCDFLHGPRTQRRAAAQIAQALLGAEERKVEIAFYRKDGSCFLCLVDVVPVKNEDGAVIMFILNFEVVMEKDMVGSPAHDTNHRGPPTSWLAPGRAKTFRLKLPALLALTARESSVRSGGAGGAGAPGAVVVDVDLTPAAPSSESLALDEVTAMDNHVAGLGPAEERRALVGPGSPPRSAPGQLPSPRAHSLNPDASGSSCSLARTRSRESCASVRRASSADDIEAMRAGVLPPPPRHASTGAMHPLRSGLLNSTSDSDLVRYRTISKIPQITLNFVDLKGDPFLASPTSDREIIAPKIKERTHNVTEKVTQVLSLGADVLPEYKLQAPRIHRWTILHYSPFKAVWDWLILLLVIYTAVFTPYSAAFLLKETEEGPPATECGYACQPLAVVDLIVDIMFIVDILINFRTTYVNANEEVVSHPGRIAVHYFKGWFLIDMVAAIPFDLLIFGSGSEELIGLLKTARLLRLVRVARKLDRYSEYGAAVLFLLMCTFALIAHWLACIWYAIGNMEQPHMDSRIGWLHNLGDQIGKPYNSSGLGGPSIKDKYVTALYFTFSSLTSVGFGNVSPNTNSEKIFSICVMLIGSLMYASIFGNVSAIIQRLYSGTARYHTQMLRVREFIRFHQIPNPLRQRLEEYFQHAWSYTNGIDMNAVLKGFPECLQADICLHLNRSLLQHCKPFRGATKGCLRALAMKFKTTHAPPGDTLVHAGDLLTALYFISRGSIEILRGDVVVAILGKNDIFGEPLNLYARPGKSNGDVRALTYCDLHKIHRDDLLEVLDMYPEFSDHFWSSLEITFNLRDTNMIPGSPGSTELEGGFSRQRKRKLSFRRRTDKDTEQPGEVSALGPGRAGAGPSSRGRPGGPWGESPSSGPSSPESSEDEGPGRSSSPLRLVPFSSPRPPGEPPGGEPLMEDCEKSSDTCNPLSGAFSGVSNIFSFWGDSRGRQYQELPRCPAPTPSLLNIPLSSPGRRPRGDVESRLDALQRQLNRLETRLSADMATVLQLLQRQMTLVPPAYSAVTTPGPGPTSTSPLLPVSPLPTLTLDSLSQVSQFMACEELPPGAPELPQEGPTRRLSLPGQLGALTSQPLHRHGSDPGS

Row | Compound | IC50 (VAP-1) | IC50 (MAO-B) | IC50 (DAO) | IC50 (MAO-A) | IC50 at 2 h (hERG)
1 | NC/C(=C/F)COc1ccc2c(c1)C(=O)CC2 [TM7-Z, (Z)-6-((2-aminomethyl-3-fluoroallyl)oxy)-2,3-dihydro-1-indenone trifluoroacetate] | 3.8 ± 0.4 nM | > 10000 nM | > 100 nM | – | –
2 | NC/C(=C/F)COc1ccc(C(=O)NC2CCOCC2)cc1 [TM76-Z, (Z)-N-(tetrahydro-2H-pyran-4-yl)-4-((2-aminomethyl-3-fluoroallyl)oxy)-benzamide trifluoroacetate] | 1.8 ± 0.2 nM | > 100 nM | – | > 100000 nM | –
3 | NC/C(=C/F)COc1ccc2c(c1)CNC2=O [TM77-Z, (Z)-5-((2-aminomethyl-3-fluoroallyl)oxy)isoindol-1-one trifluoroacetate] | – | – | – | > 100000 nM | > 10000 nM
4 | NC/C(=C\F)COc1ccc(C(=O)NCc2ccccn2)cc1 [TM112-E, (E)-4-((2-aminomethyl-3-fluoroallyl)oxy)-N-(pyridin-2-ylmethyl)benzamide trifluoroacetate] | 3.2 ± 0.4 nM | > 100 nM | – | > 100000 nM | –
5 | NC/C(=C\F)COc1ccc(C(=O)Nc2ccc3c(c2)OCCO3)cc1 [TM114-E, (E)-4-((2-aminomethyl-3-fluoroallyl)oxy)-N-(2,3-dihydrobenzo[b][1,4]dioxa-6-yl)benzamide trifluoroacetate] | 1.1 ± 0.2 nM | – | – | > 10000 nM | –
6 | NC/C(=C/F)COc1ccc(C(=O)Nc2ccc3c(c2)OCCO3)cc1 [TM114-Z, (Z)-4-((2-aminomethyl-3-fluoroallyl)oxy)-N-(2,3-dihydrobenzo[b][1,4]dioxa-6-yl)benzamide trifluoroacetate] | 0.8 ± 0.1 nM | – | – | > 10000 nM | –
7 | (Z)-6-((2-(methylamino)-3-fluoroallyl)oxy)-2-methyl-3,4-dihydroisoquinolin-1(2H)-one trifluoroacetate [TM66-Z] | 1.6 ± 0.2 nM | > 10000 nM | – | – | –
8 | (Z)-6-((2-(methylamino)-3-fluoroallyl)oxy)-3,3-dimethyl-3,4-dihydroisoquinolin-1(2H)-one trifluoroacetate [TM38-Z] | 2.9 ± 0.3 nM | > 10000 nM | > 100 nM | – | –
